Results as given in patent US4980377A, “1-(aminophenyl)-2-aminopropanone derivatives” (Laboratoire L. Lafon, priority 1984, dated 1990).
Entries after “also recorded” stand apart in the source; their conditions may differ.

Tests used:
rats [1] = assay: Overall behavior and reactivities in rats; format: in vivo, rat; conditions: dose not stated
Description: (§1) In the neuropsychopharmacological study which follows, a solution of CRL 41 153 in distilled water (pH 1.5) was administered intraperitoneally in a volume of 20 ml/kg to male mice and 5 ml/kg to male rats.
(§2) Groups of three animals are observed before and then 0.25 hour, 0.50 hour, 1 hour, 2 hours, 3 hours and 24 hours after the administration of CRL 41 153.

rats [2] = assay: Interaction with amphetamine; format: in vivo, rat; conditions: i.p.
Description: Amphetamine (2 mg/kg) is injected intraperitoneally into groups of 6 rats 30 minutes after the administration of CRL 41 153. […] 4 mg/kg and 16 mg/kg, CRL 41 153 potentiates the intensity and duration of the stereotypies induced by amphetamine.

mice [3] = assay: Interaction with barbital; format: in vivo, mouse; conditions: i.p., barbital 220 mg/kg
Description: Half an hour after the administration of CRL 41 153, groups of 10 mice receive an intraperitoneal injection of barbital (220 mg/kg).

[4] = pH of solutions in distilled water; format: physicochemical
Description: The neuropsychopharmacological study was undertaken according to the procedures described above for CRL 41 153, CRL 41 213 being adminstered intraperitoneally, in solution in distilled water, in a volume of 20 ml/kg to male mice and a volume of 5 ml/kg to male rats, and the pH of the injected solution varying with the concentration of CRL 41 213 according to the data given in Table II below.

mice [5] = assay: Motility reduced by habituation to the enclosure; format: in vivo, mouse; conditions: i.p.
Description: After they have stayed In the actimeters for 18 hours, (he mice (6 per dose, 12 control animals) receive CRL 41 153. They are immediately returned to their respective enclosures and, half an hour later, their motility is recorded for 30 minutes.

mice [6] = assay: Interaction with oxotremorine; format: in vivo, mouse; conditions: i.p.
Description: CRL 41 153 is administered to groups of 6 mice 0.5 hour before the intraperitoneal injection of 0.5 mg/kg of oxotremorine.

CNS = assay: Neuropsychopharmacological profile as a whole; format: in vivo, mice and rats
Description: as §1

mice [7] = assay: Interaction with apomorphine in mice; format: in vivo, mouse; conditions: i.p.
Description: Groups of 6 mice receive CRL 41 153 0.5 hour before the subcutaneous injection of 1 or 16 mg/kg of apomorphine.

rats [8] = assay: Interaction with apomorphine in rats; format: in vivo, rat; conditions: i.p.
Description: CRL 41 153 is administered to groups of 6 rats 0.5 hour before the subcutaneous injection of 0.5 mg/kg of apomorphine.

mice [9] = assay: Interaction with reserpine; format: in vivo, mouse; conditions: i.p.
Description: Four hours after the intraperitoneal injection of 2.5 mg/kg of reserpine, groups of 6 mice receive CRL 41 153.

dogs = assay: Cardiovascular study in anesthetized dogs; format: in vivo, dog
Description: Two dogs (average weight: 14.1 kg), anesthetized with nembutal, receive CRL 41 194 by intraduodenal administration at successive doses of 0.1 mg/kg, 0.5 mg/kg, 1 mg/kg, 2.5 mg/kg, 5 mg/kg and 10 mg/kg (in solution in physiological solvent).
The blood pressure, the heart rate, the blood flow through the femoral artery, the blood flow through the vertebral artery and the rectal temperature are measured. The coloration of the skin and the coloration of the bile, collected by catheterization of the bile duct after ligature of the cystic duct, are observed.
4 dogs (average weight: 14 kg), anesthetized with nembutal, receive CRL 41 221 by intraduodenal administration at successive doses of 0.1 mg/kg, 0.5 mg/kg, 1 mg/kg, 2.5 mg/kg, 5 mg/kg and 10 mg/kg. The blood pressure, the heart rate, the blood flow through the femoral artery, the blood flow through the vertebral artery and the rectal temperature are measured. The coloration of the skin is observed.

mice [10] = assay: Behavioral despair; format: in vivo, mouse; conditions: forcibly immersed mice, i.p.
Description: Half an hour after they have received CRL 41 153, groups of 6 mice are placed in a beaker filled with water to a height of 6 cm. The total period of immobility between the 2nd and 6th minutes following immersion is noted.

mice [11] = assay: Overall behavior and reactivities in mice; format: in vivo, mouse; conditions: dose not stated
Description: as §1, §2

[12] = tested on: gravid White New Zealand female rabbits; assay: Teratogenicity in gravid White New Zealand rabbits; format: in vivo, rabbit; conditions: day 5 to day 18 of gestation; for Affected foetuses, %: normal limit 1.5%
Description: The protocol used comprised administering to gravid White New Zealand female rabbits (weighing each about 2900-3000 grams before gestation) a daily dose of 0 (batch of control animals), 5,10 or 50 mg/kg of each product to be tested by gastrogavage from day 5 to day 18 of gestation, then carrying out a cesarean operation on day 29 of gestation in order to enumerate:
(i) the total number of foestuses, and
(ii) the total number of foestuses presenting at least one malformation.
To appreciate the results of such a protocol it must be noted that natural malformations may occur. Statistically, the percentage of foetuses presenting at least one malformation in any control batch of gravid White New Zealand female rabbits is lower than or equal to 1.5% with respect to the total number of foetuses.
To be precise in this protocol a malformation comprises at least one of the following cases: articular limb blocade, anorous foetus, deviated tail, shorter tail, skull deformation, exemcephalia.

mice [13] = assay: Spontaneous motility; format: in vivo, mouse; conditions: i.p.
Description: 0.5 hour after they have received CRL 41 153, the mice (6 per dose, 12 control animals) are placed in an actimeter, where their motility is recorded for 30 minutes.

mice [14] = assay: Motility reduced by hypoxic aggression; format: in vivo, mouse; conditions: i.p.
Description: Half an hour after they have received CRL 41 153, the mice (10 per dose, 20 control animals) are subjected to acute hypobaric anoxia [pressure reduction of 600 mm Hg (i.e. about 8×10^4 Pa) in 90 seconds; release of vacuum in 45 seconds] and are then placed in an actimeter, where their motility is recorded for 10 minutes.

[15] = 12.8 g/liter in distilled water
[16] = ≤0.05 g/liter in distilled water
[17] = anesthetized dogs, intraduodenal

| SMILES | Overall behavior: observed effects (summary) (rats [1]) | Stereotype movements (summary) (rats [1]) | Effect on stereotypies induced by amphetamine (rats [2]) | Duration of the sleep induced by barbital (mice [3]) | pH ([4]; 0.1 g/liter in distilled water) | pH ([4]; 0.4 g/liter in distilled water) | pH ([4]; 0.8 g/liter in distilled water) | pH ([4]; 1.6 g/liter in distilled water) | pH ([4]; 6.4 g/liter in distilled water) | pH [4, 15] | pH [4, 16] | Motor activity of mice accustomed to their enclosure (mice [5]) | Effect on hypothermic action of oxotremorine (mice [6]) | Antidepressant effects (overall) (CNS; conclusion of the tests) | Stimulant effects (overall) (CNS; conclusion of the tests) | Effect on hypothermia induced by apomorphine (mice [7]) | Effect on stereotypies induced by apomorphine (rats [8]) | Effect on hypothermia induced by reserpine (mice [9]) | Vasodilator (conclusion) (dogs) | Period of immobility due to despair (mice [10]) | other results |
| --- | --- | --- | --- | --- | --- | --- | --- | --- | --- | --- | --- | --- | --- | --- | --- | --- | --- | --- | --- | --- | --- |
| CC(NC1CC1)C(=O)c1ccc(N)cc1 (centres unmarked) [CRL 41 246] | excitation with hyperreactivity in mice and rats | the presence of stereotype movements in mice and rats | potentiation of the stereotypies | a reduction in the duration of the sleep induced by barbital | 5.0 | 4.5 | 4.0 | 3.5 | 3.0 | 2.5 | 5.5 | resumption in the motor activity of mice accustomed to their enclosure | antagonism of the hypothermia | antidepressant effects | stimulant effects | antagonism of the hypothermia | potentiation of the stereotypies | antagonism of the hypothermia | vasodiating properties | a reduction in the period of immobility | Effect on trembling induced by oxotremorine (mice [6]): antagonism of the trembling induced by oxotremorine; α-adrenergic stimulant effects (overall) (CNS; conclusion of the tests): α-adrenergic stimulant effects; Peripheral α-adrenergic signs (mydriasis, salivation, lacrimation, exophthalmos) (CNS; species and dose not stated): mydriasis; also recorded: salivation; Effect on ptosis induced by reserpine (mice [9]): antagonism of the ptosis induced by reserpine; Overall behavior: observed effects (summary) (mice [11]): excitation with hyperreactivity in mice and rats; Stereotype movements (summary) (mice [11]): the presence of stereotype movements in mice and rats; Affected foetuses, number ([12]; 5 mg/kg daily): 1; Total foetuses (live) ([12]; 5 mg/kg daily): 89; Affected foetuses, % ([12]; 5 mg/kg daily): 1.12%; Affected foetuses, number ([12]; 10 mg/kg daily): 0; Total foetuses (live) ([12]; 10 mg/kg daily): 94; Affected foetuses, % ([12]; 10 mg/kg daily): 0%; Spontaneous motor activity (mice [13]): an increase in the spontaneous motor activity of mice; Motor recovery of mice after hypobaric hypoxia (mice [14]): improvement in the motor recovery |
| CC(C(=O)c1ccc(N)cc1)N(C)C (centres unmarked) [CRL 41 233] | excitation with hyperreactivity in mice and rats | the presence of stereotype movements in mice and rats | potentiation of the stereotypies | a decrease in the duration of the sleep induced by barbital | 5.0 | 4.0 | 3.5 | 3.0 | 2.0 | 1.5 | 5.5 | resumption in the motor activity of mice accustomed to their enclosure | antagonism of the hypothermia | antidepressant and stimulant properties | antidepressant and stimulant properties | antagonism of the hypothermia | potentiation of the stereotypies | antagonism of the hypothermia | vasodiating properties; also recorded: vasodilating properties | a decrease in the period of immobility | pH ([4]; 0.2 g/liter in distilled water): 4.5; pH ([4]; 3.2 g/liter in distilled water): 2.5; pH ([4]; 50 g/liter in distilled water): 1.0; Rectal temperature (dogs; anesthetized dogs): large increase in the rectal temperature; Femoral flow (dogs; [17]): increases the femoral and vertebral flows as from a dose of 5 mg/kg; Heart rate (dogs; [17]): the tachycardiac effect appearing at 10 mg/kg; Vertebral flow (dogs; [17]): increases the femoral and vertebral flows as from a dose of 5 mg/kg; Overall behavior: observed effects (summary) (mice [11]): excitation with hyperreactivity in mice and rats; Stereotype movements (summary) (mice [11]): the presence of stereotype movements in mice and rats; Affected foetuses, number ([12]; 5 mg/kg daily): 1; Total foetuses (live) ([12]; 5 mg/kg daily): 89; Affected foetuses, % ([12]; 5 mg/kg daily): 1.12%; Affected foetuses, number ([12]; 10 mg/kg daily): 0; Total foetuses (live) ([12]; 10 mg/kg daily): 85; Affected foetuses, % ([12]; 10 mg/kg daily): 0%; Spontaneous motor activity (mice [13]): an increase in the spontaneous motor activity of mice; Motor recovery of mice after hypobaric hypoxia (mice [14]): improvement in the motor recovery |
